Assay results: EP2135515A1, “Taste enhancing compound” (FIRMENICH SA, priority 2008, dated 2009)
Where two headings read alike, the source gives them in different places.

Experiment: Half-tongue test: recognition threshold for velvety mouthcoating, trained sensory panel
Format: in vivo
Conditions: Homo sapiens
Experimental: The threshold at which the compound delivered a noticeable velvety mouthcoating was evaluated as follows:
The isolated compound was suspended in water, and, after removing the volatiles in high vacuum (<5 mPa), was freeze-dried twice.
The freeze-dried sample was taken up in water, adjusted to pH 4.5 using hydrochloric acid, and stepwise diluted (1+1) with water. This is referred to herein as "sample 1". A second sample was prepared comprising water (Evian®) adjusted to pH 4.5 using hydrochloric acid. This is referred to herein as "sample 2". Both samples were stored at room temperature.
Twelve panelists with no history of known taste disorders were trained to evaluate the taste of aqueous solutions (2 mL each) of the following standard taste compounds in bottled water (pH 4.5) by using a triangle test as described in the literature (20): sucrose (50 mmol/L) for sweet taste, lactic acid (20 mmol/L) for sour taste, NaCl (20 mmol/L) for salty taste, caffeine (1 mmol/L) for bitter taste, sodium glutamate (3 mmol/L) for umami taste. For the puckering astringency and the velvety astringent, mouth-drying oral sensation, the panel was trained by using gallustannic acid (0.05%) and quercetin-3-O-β-D-glucopyranoside (0.01 mmol/L), respectively, using the half-tongue test (see Scharbert S., Holzmann N., Hofmann T. Identification of the astringent taste compounds in black tea infusions by combining instrumental analysis and human bioresponse. J. Agric. Food Chem. 2004, 52, 3498-3508).
Samples 1 and 2 were presented in order of increasing concentrations to the panel. The panelists, wearing noseclips, were asked to determine the dilution at which a difference was detectable between the samples using the "half-tongue" test. The test was performed three times. When the panelist selected correctly, the same concentration was presented again besides one blank as a proof for the correctness of the data. The geometric mean of the last and the second last concentration was calculated and taken as the individual recognition threshold. The values between individuals and between five separate sessions differed by not more than plus or minus one dilution step.
For comparison with the mouthfeel-enhancing threshold of known ingredients in vanilla extract, the half-tongue test was repeated using vanillic acid, p-hydroxybenzoic acid, guaiacol, p-hydroxybenzaldehyde and vanillin respectively instead of sample 1.

[1] = half-tongue test, in water pH 4.5, twelve trained panelists wearing noseclips, geometric mean of last and second last concentration, read-out: Mouthfeel threshold

Row | Compound | minimal effective concentration [1] | minimal effective concentration (pH 4.5, read-out: Mouthfeel threshold)
1 | COc1ccccc1O [Guaiacol] | 240 µM | –
2 | COc1cc(-c2cc(OC)c(O)c(-c3ccc(O)c(OC)c3)c2)ccc1O [Sample 1, triguaiacol] | 0.01 µM | –
3 | COc1cc(C(=O)O)ccc1O [Vanillic acid] | 320 µM | –
4 | COc1cc(C=O)ccc1O [Vanillin] | 150 µM | –
5 | O=Cc1ccc(O)cc1 [p-hydroxybenzaldehyde] | – | 205 µM
6 | O=C(O)c1ccc(O)cc1 [p-hydroxybenzoic acid] | 250 µM | –
